Reference: patent US9359389B2, “Caged ceramide-1-phosphate derivatives” (RESEARCH FOUNDATION OF THE CITY UNIVERSITY OF NEW YORK, priority 2009, dated 2016)
“Also recorded” adds a separate entry of the source.

What was measured:
[1] = system: RAW 264.7 cells; assay: Cell growth and proliferation assay (MTS) in RAW 264.7 macrophages; conditions: for cell growth on delivery into RAW 264.7 macrophages: FIG. 3A, 400-500 nm light in a transilluminator; for concentration at which cell division was stimulated (MTS assay) on exposure of the cells to light: RAW264.7, compound in EtOH, 400-500 nm light; for growth stimulation in the dark: cells incubated in the dark with the compounds; for concentration for stimulation of macrophage proliferation compared with exogenous C1P: macrophages (RAW 264.7 and BMDM), after photorelease
Procedure: Cell Growth and Proliferation Assays. RAW 264.7 cells were obtained from the American Type Culture Collection (Rockville, Md.). […] Cell growth was estimated by measuring the rate of reduction of the tetrazolium dye MTS, (3-(4,5-dimethylthiazol-2-yl)-5-(3-carboxymethoxy-phenol)-2-(4-sulfophenyl)-2H-tetrazolium).
The cells were exposed to 400-500 nm light in a transilluminator equipped with a 9W lamp for 60 min at a distance of 1.5 cm at 37° C.

[2] = system: primary BMDM cells; assay: Cell growth and proliferation assay (MTS) in primary bone marrow-derived macrophages; assay type: cell-based, CD-1 mice; conditions: for concentration at which cell division was stimulated (MTS assay) on exposure of the cells to light: primary BMDM, compound in EtOH
Procedure: The cells were incubated with 1.5% MCSF for 24 hr.
Compounds 1a and 2a stimulated cell division, as determined by the MTS assay, at 2.5 and 1.0 μM, respectively, on exposure of the cells to light.
Cell Growth and Proliferation Assays. RAW 264.7 cells were obtained from the American Type Culture Collection (Rockville, Md.). BMDMs were isolated from femurs of 6- to 8-week old female CD-1 mice from Charles River Laboratory as described previously.^S2 The cells were cultured as described previously. Cell growth was estimated by measuring the rate of reduction of the tetrazolium dye MTS, (3-(4,5-dimethylthiazol-2-yl)-5-(3-carboxymethoxy-phenol)-2-(4-sulfophenyl)-2H-tetrazolium). […] Photolysis of 2.5 μM of compound 1a (delivered to RAW 264.7 cells in EtOH) was equipotent as exogenous 30 μM C1P.

[3] = Qualitative measurement of uncaging efficiency (photolysis at 365 nm, TLC); assay type: physicochemical; conditions: 100 μM in 50% aqueous EtOH, 50% 10 mM Tris, pH 7.4, 365 nm UV lamp at 1 cm
Procedure: Qualitative Measurement of Uncaging Efficiency. A 100 μM solution of S1P 1 in 50% aqueous EtOH and 50% 10 mM Tris, pH 7.4, was placed in a quartz cuvette and placed at a distance of 1 cm from a conventional UV lamp (Entela UVGL-25 UV lamp). The compound was irradiated using long wavelength (365 nm) and, after a certain time, as indicated in the TLC, an aliquot was applied to a TLC plate, which was developed with CHCl3/MeOH 3:1. Photodecomposition of 100% DECM-caged 1P 1 took place around 60 min.
Qualitative Measurement of Uncaging Efficiency. A 100 μM solution of BHNB-caged S1P (2) in 50% aqueous EtOH and 50% 10 mM Tris, pH 7.4, was placed in a quartz cuvette and irradiated at 365 nm at a distance of 1 cm with a conventional UV lamp (Entela UVGL-25 UV lamp). Aliquots were withdrawn at various times and analyzed by TLC (developed using CHCl3/MeOH 2:1). The mechanism of photolysis of 2-nitrobenzyl caged compounds has been thoroughly studied and is known to generate 2-nitrosobenzaldehyde as the photo by-product of the reaction.^S1 Similarly, our BHNB uncaging experiment is expected to generate a 2-nitrosobenzophenone derivative as the byproduct (Formula 20). […] 100% photodecomposition of […]-S1P (2) took place after 65 min.

time to 100% photodecomposition [3]	Structure (SMILES)	cell growth on delivery into RAW 264.7 macrophages [1]	concentration at which cell division was stimulated (MTS assay) on exposure of the cells to light [1] [µM]	growth stimulation in the dark [1]	concentration for stimulation of macrophage proliferation compared with exogenous C1P [1]	concentration at which cell division was stimulated (MTS assay) on exposure of the cells to light [2] [µM]	further results
	CCCCCCCCCCCCC/C=C/[C@@H](O)[C@H](COP(=O)(O)OCc1cc(=O)oc2cc(N(CC)CC)ccc12)NC(=O)CCCCCCCCCCCCCCC [Compound 1a, (2S,3R,4E)-2-Palmitamido-3-hydroxyoctadec-4-enyl (7-Diethylaminocoumarin-4-yl)methyl Phosphate]	stimulates cell growth	2.5	No growth stimulation	significantly lower concentrations than exogenous C1P	2.5	potency of growth stimulation compared with exogenous C1P at 30 μM ([1]; RAW 264.7, 2.5 μM in EtOH, photolysis): as potent as exogenous C1P; also recorded: equipotent
65 min	CCCCCCCCCCCCC/C=C/[C@@H](O)[C@@H](N)COP(=O)(O)OC(c1ccccc1)c1cc(O)c(Br)cc1[N+](=O)[O-] (stereo partly drawn) [Compound 2, (2S,3R,4E)-2-Amino-3-hydroxyoctadec-4-enyl-(4′-bromo-5′-hydroxy-2′-nitrophenyl)(phenyl)methyl Hydrogen Phosphate]						
around 60 min	CCCCCCCCCCCCC/C=C/[C@@H](O)[C@@H](N)COP(=O)(O)OCc1cc(=O)oc2cc(N(CC)CC)ccc12 [Compound 1, (2S,3R,4E)-2-Amino-3-hydroxyoctadec-4-enyl (7-(Diethylamino)coumarin-4-yl) -methyl Phosphate]						
	CCCCCCCCCCCCC/C=C/[C@@H](O)[C@H](COP(=O)(O)OC(c1ccccc1)c1cc(O)c(Br)cc1[N+](=O)[O-])NC(=O)CCCCCCCCCCCCCCC (stereo partly drawn) [Compound 2a, (4′-Bromo-5′-hydroxy-2′-nitrophenyl)(phenyl)methyl-(2S,3R,4E)-3-hydroxy-2-palmitamidooctadee-4-enyl Hydrogen Phosphate]	stimulates cell growth	1.0	No growth stimulation	significantly lower concentrations than exogenous C1P	1.0	
	CCCCCCCCCCCCC/C=C/[C@@H](O)[C@H](COP(=O)(O)O)NC(=O)CCCCCCCCCCCCCCC [N-palmitoyl-C1P, reference compound]						optimum concentration for stimulation of cell growth ([1]; RAW 264.7, aqueous dispersion, exogenous addition): 30 µM; effect on cell growth at concentrations higher than 30 μM ([1]; RAW 264.7, exogenous aqueous dispersion): growth inhibitory; optimum concentration for stimulation of cell growth ([2]; BMDM, aqueous dispersion, exogenous addition): 50 µM
